# Reference: ChEMBL document CHEMBL1137694, “Predicting anti-HIV activity of 1,3,4-thiazolidinone derivatives: 3D-QSAR approach” (Eur J Med Chem, 2009)
# System: Human immunodeficiency virus
# Assay: Antiviral activity against HIV assessed as reduction in virus-induced cytopathic effect by XTT assay
# Assay type: functional, organism-based
# Conditions: Human immunodeficiency virus 1, read-out: pEC50 (converted)
row,SMILES,EC50 [nM]
1,Cc1cccc(N2C(=O)CSC2c2c(Cl)cccc2Cl)n1 (configuration not stated),43.9
2,COc1cc(C)nc(N2C(=O)CSC2c2c(F)cccc2Cl)n1 (configuration not stated),55.9
3,O=C1CSC(c2c(F)cccc2F)N1c1cccc(Br)n1 (configuration not stated),29.9
4,COC1CCC1N1C(=O)CSC1c1c(F)cccc1F (configuration not stated),84.6
5,Cc1cccnc1N1C(=O)CSC1c1c(F)cccc1F (configuration not stated),18.7
6,O=C1CSC(c2c(F)cccc2F)N1c1cccnc1 (configuration not stated),10.5
7,Cc1ccnc(N2C(=O)CSC2c2c(Cl)cccc2Cl)n1 (configuration not stated),43.9
8,Cc1cc(C)nc(N2C(=O)CSC2c2c(F)cccc2Cl)n1 (configuration not stated),37.9
9,CC1CC(C)C1N1C(=O)CSC1c1c(F)cccc1Cl (configuration not stated),85.7
10,Cc1cccc(N2C(=S)CSC2c2c(Cl)cccc2Cl)n1 (configuration not stated),86.9
11,COc1cccc(F)c1C1SCC(=O)N1c1cc(Br)ccn1 (configuration not stated),33.9
12,Cc1cc(C)nc(N2C(=O)CSC2c2c(F)cccc2F)c1 (configuration not stated),58.9
13,Cc1cc(C)nc(N2C(=O)CSC2c2c(Cl)cccc2Cl)c1 (configuration not stated),89.8
14,COc1cc(C)nc(N2C(=O)CSC2c2c(Cl)cccc2Cl)n1 (configuration not stated),23.9
15,COc1cccc(OC)c1C1SCC(=O)N1c1cc(Br)ccn1 (configuration not stated),44.9
16,Cc1cc(Cl)nc(N2C(=O)CSC2c2c(Cl)cccc2Cl)n1 (configuration not stated),19.3
17,CC1CCC1N1C(=O)CSC1c1c(Cl)cccc1Cl (configuration not stated),79.8
18,Cc1cc(C)nc(N2C(=O)CSC2c2c(Cl)cccc2Cl)n1 (configuration not stated),17
19,Cc1cc(O)nc(N2C(=O)CSC2c2c(Cl)cccc2Cl)n1 (configuration not stated),30.4
20,COc1cccc(OC)c1C1SCC(=O)N1c1cc(C)ccn1 (configuration not stated),49.9
21,O=C1CSC(c2c(F)cccc2Cl)N1c1cccc(Br)n1 (configuration not stated),63.9
22,Cc1cccc(N2C(=O)CSC2c2c(F)cccc2F)n1 (configuration not stated),81.9
